Here are results for 12 compounds from ChEMBL document CHEMBL1821663, “Synthesis and biological evaluation of glycogen synthase kinase 3 (GSK-3) inhibitors: an fast and atom efficient access to 1-aryl-3-benzylureas” (Bioorg Med Chem Lett, 2011).

Structures are written as SMILES.

For data set [1], the target named is Casein kinase I isoform epsilon (Homo sapiens, UniProt P49674). Kind of data set: Inhibition of human CKI epsilon activity using Ser/Thr 11 peptide as substrate by FRET assay.
For the next data set, the target named is T1, Aurora kinase A (Homo sapiens, UniProt O14965).
T1 sequence (O14965 whole entry): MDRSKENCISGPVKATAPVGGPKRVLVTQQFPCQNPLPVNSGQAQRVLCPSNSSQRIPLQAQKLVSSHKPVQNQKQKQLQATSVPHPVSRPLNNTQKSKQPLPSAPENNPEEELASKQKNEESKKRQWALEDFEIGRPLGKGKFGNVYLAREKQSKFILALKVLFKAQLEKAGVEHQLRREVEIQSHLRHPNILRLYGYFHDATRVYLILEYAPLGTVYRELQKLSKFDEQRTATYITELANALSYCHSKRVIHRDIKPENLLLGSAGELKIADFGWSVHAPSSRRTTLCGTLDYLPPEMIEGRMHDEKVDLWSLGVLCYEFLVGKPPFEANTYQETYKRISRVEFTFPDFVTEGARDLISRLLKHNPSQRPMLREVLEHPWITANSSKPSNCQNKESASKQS
Kind of data set: Inhibition of human AURKA activity using Ser/Thr 1 peptide as substrate by FRET assay.

The target in data set [2] is T2, Glycogen synthase kinase-3 beta (Homo sapiens, UniProt P49841). Put plainly: Inhibition of GSK3-beta assessed as [32P]gamma-ATP incorporation into substrate at 10 uM after 15 mins by gamma counting; values are per cent of control.
Target sequence in this assay (P49841 whole entry, looked up): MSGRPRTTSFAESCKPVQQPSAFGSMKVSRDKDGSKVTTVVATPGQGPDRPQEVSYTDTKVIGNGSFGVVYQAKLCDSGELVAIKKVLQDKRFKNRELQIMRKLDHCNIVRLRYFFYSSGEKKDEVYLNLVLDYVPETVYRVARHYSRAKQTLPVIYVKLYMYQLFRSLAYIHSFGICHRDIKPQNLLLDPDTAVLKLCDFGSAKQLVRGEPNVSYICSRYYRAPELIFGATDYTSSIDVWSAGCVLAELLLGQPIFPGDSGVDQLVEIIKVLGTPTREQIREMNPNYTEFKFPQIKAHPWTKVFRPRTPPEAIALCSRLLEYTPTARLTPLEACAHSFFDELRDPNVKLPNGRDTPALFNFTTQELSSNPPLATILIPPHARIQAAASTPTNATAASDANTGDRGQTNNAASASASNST
The target of data set [3] is Glycogen synthase kinase-3 alpha (Homo sapiens, UniProt P49840). Put plainly: Inhibition of human GSK3alpha activity using Ser/Thr 11 peptide as substrate by FRET assay.
For data set [4], the target named is T2, Glycogen synthase kinase-3 beta. Kind of data set: Inhibition of human GSK3-beta activity using Ser/Thr 9 peptide as substrate by FRET assay.
Target sequence in this assay (P49841 whole entry): as the sequence (P49841 whole entry, looked up) above
Data set [5] has as its target Protein kinase C alpha type (Homo sapiens, UniProt P17252). Kind of data set: Inhibition of human PKCalpha activity using Ser/Thr 7 peptide as substrate by FRET assay.
Data set [6] is filed under the species Danio rerio. Kind of data set: Toxicity in 8 to 15 -somite stage zebrafish embryo after 18 to 25 hrs. Type of data set: organism-based. To be noted: in vivo.
For data set [7], the target named is Cyclin-dependent kinase 5/CDK5 activator 1 (Homo sapiens, UniProt Q00535). Put plainly: Inhibition of human CDK5/p35 activity using Ser/Thr 12 peptide as substrate by FRET assay. Format: protein-complex assay.
The species named for data set [8] is Danio rerio. Put plainly: Toxicity in 8 to 15 -somite stage zebrafish embryo assessed as deformation in fish tail formation at 100 uM after 18 to 25 hrs. Type of data set: organism-based. To be noted: in vivo.
Data set [9] is filed under the species Danio rerio. Kind of data set: Toxicity in 8 to 15 -somite stage zebrafish embryo assessed as swimming movements in circles at 100 uM after 18 to 25 hrs. Format: organism-based. The settings on record: in vivo.
The target of data set [10] is T2, Glycogen synthase kinase-3 beta. Put plainly: Inhibition of GSK3-beta assessed as [32P]gamma-ATP incorporation into substrate at 1 uM after 15 mins by gamma counting; values are per cent of control.
Target sequence in this assay (P49841 whole entry, looked up): as above
The species named for data set [11] is Danio rerio. Kind of data set: Toxicity in 8 to 15 -somite stage zebrafish embryo assessed as deformation in fish tail formation at 25 uM after 18 to 25 hrs. To be noted: in vivo. Type of data set: organism-based.
For data set [12], the species on record is Danio rerio. Put plainly: Toxicity in 8 to 15 -somite stage zebrafish embryo assessed as swimming movements in circles at 25 uM after 18 to 25 hrs. Format: organism-based. To be noted: in vivo.

What is called IC50 is the concentration needed to halve the response being measured. A higher IC50 goes with weaker potency in that assay. As usually defined, the residual activity is the signal under treatment as a percentage of the control signal.

Sequence of Glycogen synthase kinase-3 alpha (P49840 whole entry): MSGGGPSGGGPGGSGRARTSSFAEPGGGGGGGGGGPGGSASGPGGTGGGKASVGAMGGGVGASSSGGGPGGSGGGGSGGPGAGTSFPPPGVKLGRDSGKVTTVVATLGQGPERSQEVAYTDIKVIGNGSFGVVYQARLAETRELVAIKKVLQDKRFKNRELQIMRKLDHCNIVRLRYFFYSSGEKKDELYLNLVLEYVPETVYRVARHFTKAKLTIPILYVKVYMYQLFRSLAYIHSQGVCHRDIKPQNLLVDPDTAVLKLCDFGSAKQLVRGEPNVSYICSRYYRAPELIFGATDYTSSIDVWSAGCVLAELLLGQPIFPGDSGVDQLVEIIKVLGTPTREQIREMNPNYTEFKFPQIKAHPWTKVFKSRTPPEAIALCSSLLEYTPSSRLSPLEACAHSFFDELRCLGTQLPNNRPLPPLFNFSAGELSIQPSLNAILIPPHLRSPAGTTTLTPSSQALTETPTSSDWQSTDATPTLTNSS
Sequence of Casein kinase I isoform epsilon (P49674 whole entry, canonical isoform): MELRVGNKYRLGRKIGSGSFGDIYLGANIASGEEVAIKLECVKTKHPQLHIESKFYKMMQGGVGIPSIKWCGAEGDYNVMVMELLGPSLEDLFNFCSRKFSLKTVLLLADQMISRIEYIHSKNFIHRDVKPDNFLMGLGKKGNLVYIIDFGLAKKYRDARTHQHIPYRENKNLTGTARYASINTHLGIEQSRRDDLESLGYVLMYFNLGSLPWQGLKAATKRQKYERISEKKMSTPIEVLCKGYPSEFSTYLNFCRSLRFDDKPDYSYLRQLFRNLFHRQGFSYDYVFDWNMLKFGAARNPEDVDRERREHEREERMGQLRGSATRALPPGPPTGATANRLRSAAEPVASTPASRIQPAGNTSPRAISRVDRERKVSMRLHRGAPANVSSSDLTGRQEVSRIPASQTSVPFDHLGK
Sequence of Cyclin-dependent kinase 5/CDK5 activator 1 (Q00535 whole entry): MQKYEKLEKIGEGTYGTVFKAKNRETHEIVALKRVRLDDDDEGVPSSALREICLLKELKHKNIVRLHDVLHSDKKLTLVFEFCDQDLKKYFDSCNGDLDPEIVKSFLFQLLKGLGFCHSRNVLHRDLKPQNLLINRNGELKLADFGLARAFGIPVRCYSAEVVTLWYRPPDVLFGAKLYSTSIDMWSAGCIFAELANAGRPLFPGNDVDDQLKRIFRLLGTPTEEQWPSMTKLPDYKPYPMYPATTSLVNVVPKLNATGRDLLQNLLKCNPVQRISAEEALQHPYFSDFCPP
Sequence of Cyclin-dependent kinase 5/CDK5 activator 1 (Q15078 whole entry, further chain): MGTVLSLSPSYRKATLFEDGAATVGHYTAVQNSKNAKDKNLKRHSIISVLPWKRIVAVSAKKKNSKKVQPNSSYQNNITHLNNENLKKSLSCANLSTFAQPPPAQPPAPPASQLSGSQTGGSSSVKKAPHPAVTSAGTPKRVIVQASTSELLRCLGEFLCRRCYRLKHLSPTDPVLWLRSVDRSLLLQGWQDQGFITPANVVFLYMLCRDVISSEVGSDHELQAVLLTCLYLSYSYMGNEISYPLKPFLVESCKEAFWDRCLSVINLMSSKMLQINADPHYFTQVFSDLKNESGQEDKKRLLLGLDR

With `COc1ccc(CNC(=O)Nc2cc(-c3nnn[nH]3)ccn2)cc1`, the IC50 in data set [1] was over 100 µM; against Aurora kinase A, over 100 µM; in data set [3] it was 0.37 µM; in data set [4] it was 0.51 µM; in [5], over 100 µM; in data set [7] it was over 100 µM. The residual activity in data set [2] was found to be 24%; in data set [10], 82%. The Activity entry in the data set listed under Danio rerio [6] was “Non-toxic”; in the data set listed under Danio rerio [8], “Toxic”; in the data set listed under Danio rerio [9], “Toxic”.
For `COc1ccc(CNC(=O)Nc2nc3ccc([N+](=O)[O-])cc3s2)cc1`, the IC50 was over 100 µM in data set [1]; over 100 µM at Aurora kinase A; 0.22 µM in data set [3]; 3.64 µM in [4]; over 100 µM in data set [5]; over 100 µM in data set [7].
With `COc1ccc(CNC(=O)Nc2ccc([N+](=O)[O-])cn2)cc1`, the figures for the residual activity in data set [2] and in data set [10] were 31% and 75%, respectively.
With `CCOC(=O)c1sc(NC(=O)NCc2ccc(F)cc2)nc1C`, the Activity result in the data set filed under Danio rerio [6] is “Non-toxic”.
Turning to `Nc1nc(NCCNc2ncc(-c3ncc[nH]3)c(-c3ccc(Cl)cc3Cl)n2)ccc1[N+](=O)[O-]`, the Activity entry in the data set listed under Danio rerio [11] was “Toxic”; in the data set listed under Danio rerio [6] it was “Non-toxic”; in the data set filed under Danio rerio [12], “Toxic”.
Consider `COc1ccc(CNC(=O)Nc2ncc([N+](=O)[O-])s2)cc1`, for which the IC50 in data set [1] and in data set [5] was over 100 µM in each case. For the same compound, the values for the residual activity in data set [2] and in data set [10] were 20% and 55%, respectively. Further, in the data set filed under Danio rerio [6], the Activity entry is reported as “Toxic”.
`COc1ccc(CNC(=O)Nc2cc(-c3cccnc3F)ccn2)cc1`: the residual activity in data set [2] turned out to be 12%. Half-maximal inhibition in data set [4] (IC50) was put at 0.098 µM.
As to `COc1ccc(CNC(=O)Nc2nc3ccc(C#N)cc3s2)cc1`, the residual activity stood at 24% in [2] and 57% in [10].
Take `COc1ccc(CNC(=O)Nc2cc(C#N)ccn2)cc1`: the IC50 in data set [1] is over 100 µM; against Aurora kinase A, over 100 µM; in [3], 1.12 µM; in data set [4], 1.43 µM; in [5], over 100 µM; in data set [7], over 100 µM. Further, the residual activity turned out to be 42% in [2] and 101% in data set [10].
As to `COc1ccc(CNC(=O)Nc2ccc(C#N)cn2)cc1`, the values for the residual activity in data set [2] and in data set [10] were 40% and 79%, respectively.
Take `COc1ccc(CNC(=O)Nc2cc(-c3ccccc3OC)ccn2)cc1`: the residual activity in [2] is 32%; in data set [10] it was 91%.
On to `COc1ccc(CNC(=O)Nc2nc3ccc(-c4nnn[nH]4)cc3s2)cc1`, for which the IC50 in data set [1] turned out to be 15.3 µM; on Aurora kinase A, 4.8 µM; in [3] it was 0.13 µM; in data set [4] it was 0.14 µM; in [5], 24.2 µM; in [7], 26.4 µM. The residual activity was found to be 18% in [2] and 69% in data set [10]. The Activity result in the data set filed under Danio rerio [6] was “Non-toxic”; in the data set filed under Danio rerio [8] it was “Toxic”; in the data set filed under Danio rerio [9] it was “Toxic”.
